According to patent publication US4115587A, “Fatty acid amides of norfenfluramine and compositions and methods thereof” (A. H. Robins Company, Inc., priority 1976, dated 1978):
Read-outs that look alike come from different tables or passages of the source.

What was measured:
[1] = assay type: in vivo, male Sprague-Dawley rats; details: cholesterol diet, .2% in food; for Gross Feed Efficiency: gross weight gain/total food consumed in grams; for Body wt, Final / Liver wt per 100 g body wt. / Liver wt, Total: ± S.D.
Description: (§1) General feeding experiments were conducted on rats to determine the effect of the amides of this invention on serum and liver lipids of animals fed a basal diet and a basal diet supplemented with cholesterol. In addition, the effect of these drugs on serum lipoproteins was studied as well as their effect on body weight, gross feed efficiency, liver weight, appetite and energy utilization with respect to their metabolic size. Male, Sprague-Dawley rats weighing 150-175 g. were housed in cages with raised wire floors in a room kept at a temperature of 24°-26° C. with a 12-hour day and 12-hour night cycle, fed ad libitum a semipurified diet consisting by weight % composition: vitamin-free casein, 20; glucose, 63; hydrogenated coconut oil, 10; GBI Vitamin Fortification Mixture, Cat. #40060 obtained from General Biochemical Company of Chargrin Falls, Ohio, 1; modified salt mix of Williams and Briggs, Cat. #170911 obtained from General Biochemical Company, 4; and cellulose, 2; and watered. The modified salt mix provided the following amounts in grams of elements per Kg. of diet:
(§2) Diets were supplemented with 0.5% cholic acid, 1% cholesterol, and drug at the expense of glucose. The experimental period was 18-21 days with body weight and food measured at specified intervals. Animals were fasted overnight and terminally bled by cardiac puncture. Blood was anti-coagulated with ethylenediamine tetracetic acid and plasma was separated by centrifugation, and stored at -20° C. Livers were excised, weighed, and stored at -20° C. All samples remained at this temperature until they were analyzed for total lipids, total cholesterol, triglycerides and phospholipids. Gross feed efficiency together with the effect of metabolic size on food intake and the effect of drug on energy utilization were determined.
(§3) Results of testing the mixed amides of Example 5 an reference compounds in rats on a basal diet with added cholesterol according to the foregoing procedure for dietary induced hyperlipemia are in Tables 4 and 5.

[2] = tested on: β-Sterol Synthesis, Liver; test: β-Sterol synthesis, acetate-1-14C incorporation, liver (Table 8); assay type: in vivo, male Sprague-Dawley rats; details: for Acetate-1-14C incorporated, Digitonide / Acetate-1-14C incorporated, Non-saponifiable: Liver, 140 mg/kg p.o., ± S.D.
Description: (§4) The effect of the mixed amides of Example 5 and reference compounds on β Sterol synthesis was determined by a modified procedure of Hill and Dvornik Arch. Biochem. Biophys. 114 (1966), 88. Male Sprague-Dawley rates weighing 127-175 g. were freely provided a basal semi-purified diet and water. The rats were housed in cages with raised wire floors in a room kept at a temperature of 24°-26° C. with a 12-hour day-12-hour night cycle. The cycle was reversed so the night cycle corresponded to the working day to take advantage of the circadian rhythm that favors cholesterol synthesis. The test period was five days and 20 μCi sodium acetate-1-^14 C (Sp. act. 56 mCi/m mole) administered intraperitoneally. Animals were sacrificed under carbon dioxide and the distal 10 cm of the ileum as well as the median and left liver lobes excised and homogenized. Subsequently, the β Sterols were isolated as the digitonide and the radioactivity determined in a Packard Tricarb Liquid Scintillation Spectrometer Model 3385 using 0.5% 2,5 diphenyloxazole and 8% naphthalene in a solvent mixture of 40% toluene, 40% dioxane and 20% absolute ethanol. Data for the effect of the mixed amides of Example 5 on the synthesis of nonsaponifiable substances and β Sterols as determined by the Digitonide method are shown in Table 8. […] A prior art compound, α-methylbenzyllinoleamide at 140 mg/kg, p.o. had no effect on cholesterol synthesis in either tissue.

[3] = tested on: β-Sterol Synthesis, Ileum; test: β-Sterol synthesis, acetate-1-14C incorporation, ileum (Table 8); assay type: in vivo, male Sprague-Dawley rats; details: for Acetate-1-14C incorporated, Digitonide / Acetate-1-14C incorporated, Non-saponifiable: Ileum, 140 mg/kg p.o., ± S.D.
Description: as §4

Serum and Liver Lipids [4] = test: Dietary-induced hyperlipemia test, basal semi-purified diet: serum and liver lipids (Table 3); assay type: in vivo, male Sprague-Dawley rats; details: .2% in food, ± S.D.
Description: as §1, §2
(§5) Results of testing the mixed amides of Example 5 and reference compounds in rats on a basal diet according to the foregoing procedure for dietary induced hyperlipemia are in Tables 2 and 3.

Serum and Liver Lipids [5] = test: Dietary-induced hyperlipemia test, basal diet with cholesterol: serum and liver lipids (Table 5); assay type: in vivo, male Sprague-Dawley rats; details: .2% in food, ± S.D.; for Serum Cholesterol: p<.05 for Ex. 5; for Liver Cholesterol / Liver Lipids, Total / Serum Lipids, Total: p<.05 for all; for Serum Triglycerides: p<.05 for clofibrate
Description: as §1, §2, §3

[6] = tested on: Serum Triglycerides and Cholesterol; test: Triton-induced hyperlipidemia test (Table 1); assay type: in vivo, male Sprague-Dawley rats; details: 140 mg/kg p.o.; for % Change Cholesterol / % Change Triglycerides: vs control; for Serum Cholesterol / Serum Triglycerides: ± SD
Description: Fasted, male Sprague-Dawley rats weighing 250-350 g were fed ad libitum a commercial lab chow with free access to water. The animals were fasted overnight and administered Triton-WR-1339 (produced by Ruger Chemical Company, Inc., Irvington, New Jersey) as described by Schurr et al.; Lipids 7 68(1972) except the procedure was modified to use the saphenous vein and divided doses of 70 mg/kg. The rats were anesthetized with sodium pentobarbital and terminally bled by heart puncture. Serum was stored at -20° C. until it was analyzed for total cholesterol and triglycerides. Comparison was also made with clofibrate.

[7] = Dietary-induced hyperlipemia test, basal semi-purified diet: liver weight, body weight, food consumption (Table 2); assay type: in vivo, male Sprague-Dawley rats; details: .2% in food; for Gross Feed Efficiency: gross weight gain in grams/total food consumed in grams; for Body wt, Final / Liver wt per 100 g body wt. / Liver wt, Total: ± S.D.
Description: as §1, §2, §5

Serum Lipoproteins = test: Serum lipoproteins of rats fed semi-purified diet supplemented with cholesterol (Table 7); assay type: in vivo; details: .2% in food
Description: as §1, §2
^a VLDL, very low density lipoproteins; LDL, low density lipoproteins
and HDL, high density lipoproteins as determined on a Beckman-Gilford

[8] = rats; seemed to be caused by reduced feed intake; cited from earlier work
[9] = Motor activity, modification of the method of Cook et al.; assay type: in vivo, female albino mice, ICR strain; details: 6.5 mg/kg, i.p.
Excerpt: Motor activity of norfenfluramine and the amides of norfenfluramine of this invention were compared by determination of the activity in female, albino mice of the ICR strain by a modification of the method of Cook et al. in J. Pharmac. Exp. Ther. 113:11a (1955).

[10] = Neurotoxicity, tremors and lethality; assay type: in vivo, mice; details: i.p.

## CCOC(=O)C(C)(C)Oc1ccc(Cl)cc1 [Clofibrate, ethyl p-chlorophenoxyisobutyrate]
[1]
  Food Consumed: 340 g
  Gross Feed Efficiency: .215
  Body wt, Final: 208 ± 16 g
  Liver wt per 100 g body wt.: 4.9 ± 1.2 g
  Liver wt, Total: 10.4 ± 2.6 g
[2]
  Acetate-1-14C incorporated, Digitonide: 1.588 ± 1.216 n moles/g tissue
  Acetate-1-14C incorporated, Non-saponifiable: 2.943 ± 1.707 n moles/g tissue
[3]
  Acetate-1-14C incorporated, Digitonide: 6.098 ± .909 n moles/g tissue
  Acetate-1-14C incorporated, Non-saponifiable: 6.774 ± 1.447 n moles/g tissue
Serum and Liver Lipids [4]
  Liver Cholesterol: 2.63 ± .09 mg/g
  Liver Lipids, Total: 51.21 ± 7.89 mg/g
  Liver Triglycerides: 1.78 ± .43 mg/g
  Serum Cholesterol: 89.83 ± 8.77 mg/100 ml
  Serum Lipids, Total: 143.70 ± 22.42 mg/100 ml
  Serum Triglycerides: 31.83 ± 7.08 mg/100 ml
Serum and Liver Lipids [5]
  Liver Triglycerides: 7.83 ± 2.22 mg/g
  Serum Cholesterol: 235.00 ± 68.27 mg/100 ml
  Liver Cholesterol: 14.17 ± 9.10 mg/g
  Liver Lipids, Total: 93.83 ± 12.06 mg/g
  Serum Lipids, Total: 430.33 ± 119.37 mg/100 ml
  Serum Triglycerides: 126.50 ± 47.21 mg/100 ml
[6]; Test Group I
  % Change Cholesterol: -24.0%
  % Change Triglycerides: -79%
  Serum Cholesterol: 173.0 ± 54.0 mg/100 ml
  Serum Triglycerides: 124.5 ± 7.8 mg/100 ml
[6]; Test Group II
  % Change Cholesterol: -24%
  Serum Cholesterol: 94.1 ± 13.6 mg/100 ml
[6]; Test Group III
  % Change Triglycerides: -20%
  Serum Cholesterol: 109.3 ± 24.4 mg/100 ml
  Serum Triglycerides: 132.7 ± 64.5 mg/100 ml
[6]; Test Group IV
  % Change Cholesterol: -24%
  % Change Triglycerides: -34%
  Serum Cholesterol: 213.0 ± 14.1 mg/100 ml
  Serum Triglycerides: 411.7 ± 118.0 mg/100 ml
[7]
  Food Consumed: 306 g
  Gross Feed Efficiency: .180
  Body wt, Final: 210 ± 21 g
  Liver wt per 100 g body wt.: 4.4 ± .4 g
  Liver wt, Total: 9.2 ± .4 g
Serum Lipoproteins
  Albumin, Percentage Composition: 22.63%
  HDL, Percentage Composition: 9.03%
  LDL, Percentage Composition: 42.56%
  VLDL, Percentage Composition: 25.76%

## CCCCC/C=C\C/C=C\CCCCCCCC(=O)NC(C)c1ccccc1 (stereo not drawn) [α-methylbenzyl linoleamide]
[1]
  Food Consumed: 311 g
  Gross Feed Efficiency: .177
  Body wt, Final: 192 ± 25 g
  Liver wt per 100 g body wt.: 3.7 ± .2 g
  Liver wt, Total: 7.1 ± 1.3 g
[2]
  Acetate-1-14C incorporated, Digitonide: 3.882 ± 2.887 n moles/g tissue
  Acetate-1-14C incorporated, Non-saponifiable: 4.533 ± 3.131 n moles/g tissue
[2]; liver, 140 mg/kg, p.o.
  effect on cholesterol synthesis: no effect
[3]
  Acetate-1-14C incorporated, Digitonide: 5.947 ± .654 n moles/g tissue
  Acetate-1-14C incorporated, Non-saponifiable: 7.648 ± 1.664 n moles/g tissue
[3]; ileum, 140 mg/kg, p.o.
  effect on cholesterol synthesis: no effect
Serum and Liver Lipids [4]
  Liver Cholesterol: 3.34 ± .24 mg/g
  Liver Lipids, Total: 40.05 ± 11.37 mg/g
  Liver Triglycerides: 4.85 ± 2.71 mg/g
  Serum Cholesterol: 77.50 ± 3.91 mg/100 ml
  Serum Lipids, Total: 199.80 ± 60.9 mg/100 ml
  Serum Triglycerides: 72.33 ± 29.92 mg/100 ml
Serum and Liver Lipids [5]
  Liver Triglycerides: 4.35 ± 2.88 mg/g
  Serum Cholesterol: 197.75 ± 23.24 mg/100 ml
  Liver Cholesterol: 8.33 ± 1.37 mg/g
  Liver Lipids, Total: 84.00 ± 14.26 mg/g
  Serum Lipids, Total: 453.25 ± 90.58 mg/100 ml
  Serum Triglycerides: 262.50 ± 51.88 mg/100 ml
[8]
  gain in body weight: did suppress gain in body weight
[7]
  Food Consumed: 331 g
  Gross Feed Efficiency: .210
  Body wt, Final: 226 ± 30 g
  Liver wt per 100 g body wt.: 2.9 ± .3 g
  Liver wt, Total: 6.7 ± .8 g
Serum Lipoproteins
  Albumin, Percentage Composition: 15.65%
  HDL, Percentage Composition: 29.62%
  LDL, Percentage Composition: 18.51%
  VLDL, Percentage Composition: 36.19%

## CC(N)Cc1cccc(C(F)(F)F)c1 (stereo not shown) [norfenfluramine]
[9]
  effect on motor activity: strong effect
[10]; 40 mg/kg
  tremors: tremors were observed
[10]; 100 mg/kg
  lethality: lethality
